US5099015A, “Trifluoromethyl 1-carba(1-dethia)cephems” (Eli Lilly and Company, priority 1991, dated 1992)
In brackets after ≈: the same amount, converted by molar mass. Like-named read-outs stand apart in the source and are kept apart here.

Key:
Test in all cases: Agar dilution antibacterial test (MIC)
Assay type in all cases: cell-based
[1] = system: Acom AC12
Procedure: (§1) Fresh overnight cultures of test bacteria were diluted to approximately 1x(10)4 cells/microliter and applied in one microliter volumes to the surfaces of the agar plates. The innoculated plates were incubated overnight at 35° C. in ambient air. Minimum inhibitory concentration (mic) endpoints were recorded as the lowest antibiotic concentrations in micrograms per milliliter that inhibited the development of visible growth on the plates. The following summarizes the results of such tests with the compounds of the examples listed above.

[2] = system: Citro CF17
Procedure: as §1

[3] = system: Enterobacter aerogenes C32
Procedure: as §1

[4] = system: Enterobacter aerogenes EB17
Procedure: as §1

[5] = system: Enterobacter cloacae 265A
Procedure: as §1

[6] = system: Enterobacter cloacae EB5
Procedure: as §1

[7] = system: Enterococcus faecalis 2041
Procedure: as §1

[8] = system: Enterococcus faecium X66
Procedure: as §1

[9] = system: Escherichia coli EC14
Procedure: as §1

[10] = system: Escherichia coli N10
Procedure: as §1

[11] = system: Escherichia coli TEM
Procedure: as §1

[12] = system: Haemophilus influenzae 76
Procedure: as §1

[13] = system: Haemophilus influenzae C.L.
Procedure: as §1

[14] = system: Klebsiella pneumoniae KAE
Procedure: as §1

[15] = system: Klebsiella pneumoniae X26
Procedure: as §1

[16] = system: Klebsiella pneumoniae X68
Procedure: as §1

[17] = system: Morg morg PR15
Procedure: as §1

[18] = system: Proteus incon PR33
Procedure: as §1

[19] = system: Proteus rett C24; details: Proteus rett C24
Procedure: as §1

[20] = system: Salmonella 1335
Procedure: as §1

[21] = system: Salmonella X514
Procedure: as §1

[22] = system: Serratia SE3
Procedure: as §1

[23] = system: Serratia X99
Procedure: as §1

[24] = system: Shig sonn. N9
Procedure: as §1

[25] = system: Staphylococcus aureus NRRL X1.1
Procedure: as §1

[26] = system: Staphylococcus aureus S13E
Procedure: as §1

[27] = system: Staphylococcus aureus V41
Procedure: as §1

[28] = system: Staphylococcus aureus X400
Procedure: as §1

[29] = system: Staphylococcus epidermidis 222
Procedure: as §1

[30] = system: Staphylococcus epidermidis EPI270
Procedure: as §1

[31] = system: Staphylococcus pneumoniae Park 1
Procedure: as §1

[32] = system: Staphylococcus pyogenes C203
Procedure: as §1

[33] = Klebsiella aerogenes, read-out: MIC

N[C@@H](C(=O)N[C@@H]1C(=O)N2C(C(=O)O)=C(C(F)(F)F)CC[C@H]12)c1ccc(F)cc1 [Compound 3, [6R,7S]-7-β-[D-α-(amino)-4-fluorophenylacetylamino]-3-trifluoromethyl-1-carba-1-dethia-3-cephem-4-carboxylic acid]
MIC ([1]; read-out: MIC): 64 µg/mL (≈ 159 µM) | MIC ([2]; read-out: MIC): 8 µg/mL (≈ 19.9 µM) | MIC [3, 33]: 8 µg/mL (≈ 19.9 µM) | MIC [4, 33]: 8 µg/mL (≈ 19.9 µM) | MIC ([5]; read-out: MIC): 8 µg/mL (≈ 19.9 µM) | MIC ([6]; read-out: MIC): 8 µg/mL (≈ 19.9 µM) | MIC ([7]; read-out: MIC): 32 µg/mL (≈ 79.7 µM) | MIC ([8]; read-out: MIC): 32 µg/mL (≈ 79.7 µM) | MIC ([9]; read-out: MIC): 1 µg/mL (≈ 2.49 µM) | MIC ([10]; read-out: MIC): 4 µg/mL (≈ 9.97 µM) | MIC ([11]; read-out: MIC): 1 µg/mL (≈ 2.49 µM) | MIC ([12]; read-out: MIC): 1 µg/mL (≈ 2.49 µM) | MIC ([13]; read-out: MIC): 0.5 µg/mL (≈ 1.25 µM) | MIC ([14]; read-out: MIC): 8 µg/mL (≈ 19.9 µM) | MIC ([15]; read-out: MIC): 0.5 µg/mL (≈ 1.25 µM) | MIC ([16]; read-out: MIC): 1 µg/mL (≈ 2.49 µM) | MIC ([17]; read-out: MIC): 16 µg/mL (≈ 39.9 µM) | MIC ([18]; read-out: MIC): 8 µg/mL (≈ 19.9 µM) | MIC ([19]; read-out: MIC): 8 µg/mL (≈ 19.9 µM) | MIC ([20]; read-out: MIC): 2 µg/mL (≈ 4.98 µM) | MIC ([21]; read-out: MIC): 0.5 µg/mL (≈ 1.25 µM) | MIC ([22]; read-out: MIC): 32 µg/mL (≈ 79.7 µM) | MIC ([23]; read-out: MIC): 16 µg/mL (≈ 39.9 µM) | MIC ([24]; read-out: MIC): 2 µg/mL (≈ 4.98 µM) | MIC ([25]; NRRLX1.1, read-out: MIC): 1 µg/mL (≈ 2.49 µM) | MIC [26]: 32 µg/mL (≈ 79.7 µM) | MIC ([27]; read-out: MIC): 16 µg/mL (≈ 39.9 µM) | MIC ([28]; read-out: MIC): 64 µg/mL (≈ 159 µM) | MIC ([29]; read-out: MIC): 4 µg/mL (≈ 9.97 µM) | MIC ([30]; read-out: MIC): 4 µg/mL (≈ 9.97 µM) | MIC ([31]; PARK1, read-out: MIC): 0.25 µg/mL (≈ 0.623 µM) | MIC ([32]; read-out: MIC): 0.06 µg/mL (≈ 0.15 µM)

CCS(=O)(=O)Nc1cccc(C(N)C(=O)N[C@@H]2C(=O)N3C(C(=O)O)=C(C(F)(F)F)CC[C@H]23)c1 (stereo partly shown) [Compound 6]
MIC [1]: 64 µg/mL (≈ 130 µM) | MIC [2]: 32 µg/mL (≈ 65.2 µM) | MIC [3]: 16 µg/mL (≈ 32.6 µM) | MIC [4]: 16 µg/mL (≈ 32.6 µM) | MIC [5]: 32 µg/mL (≈ 65.2 µM) | MIC [6]: 32 µg/mL (≈ 65.2 µM) | MIC [7]: 32 µg/mL (≈ 65.2 µM) | MIC [8]: 64 µg/mL (≈ 130 µM) | MIC [9]: 1 µg/mL (≈ 2.04 µM) | MIC [10]: 8 µg/mL (≈ 16.3 µM) | MIC [11]: 1 µg/mL (≈ 2.04 µM) | MIC [12]: 4 µg/mL (≈ 8.16 µM) | MIC [13]: 1 µg/mL (≈ 2.04 µM) | MIC [14]: 32 µg/mL (≈ 65.2 µM) | MIC [15]: 0.25 µg/mL (≈ 0.51 µM) | MIC [16]: 1 µg/mL (≈ 2.04 µM) | MIC [17]: 16 µg/mL (≈ 32.6 µM) | MIC [18]: 16 µg/mL (≈ 32.6 µM) | MIC [19]: 32 µg/mL (≈ 65.2 µM) | MIC [20]: 8 µg/mL (≈ 16.3 µM) | MIC [21]: 1 µg/mL (≈ 2.04 µM) | MIC [22]: 128 µg/mL (≈ 261 µM) | MIC [23]: 64 µg/mL (≈ 130 µM) | MIC [24]: 4 µg/mL (≈ 8.16 µM) | MIC [25]: 4 µg/mL (≈ 8.16 µM) | MIC [26]: 32 µg/mL (≈ 65.2 µM) | MIC [27]: 8 µg/mL (≈ 16.3 µM) | MIC [28]: 32 µg/mL (≈ 65.2 µM) | MIC [29]: 4 µg/mL (≈ 8.16 µM) | MIC [30]: 8 µg/mL (≈ 16.3 µM) | MIC [31]: 0.125 µg/mL (≈ 0.255 µM) | MIC [32]: 0.06 µg/mL (≈ 0.122 µM)
